Test [1] deals with rat uterine decidualization. Briefly: Rat decidualization assay. The following applies: s.c.; for Estimated average EC50 for uterine weight (decidual response): ovariectomized rats, average of dose-response curves; for Estimated EC50 for uterine weight (decidual response): ovariectomized female Sprague-Dawley rats, once daily for seven days, individual studies.
Procedure: (2) Rat Decidualization Assay
(a) Objective: This procedure is used to evaluate the effect of progestins and antiprogestins on rat uterine decidualization and compares the relative potencies of various test compounds.
(b) Methods • A. Reagents • Test compounds are dissolved in 100% ethanol and mixed with corn oil (vehicle). Stock solutions of the test compounds in oil (the Mazola™ oil) are then prepared by heating (˜80° C.) the mixture to evaporate ethanol. Test compounds are subsequently diluted with 100% corn oil or 10% ethanol in corn oil prior to the treatment of animals. […] Ovariectomy is performed at least 10 days prior to treatment to reduce circulating sex steroids. Animals are housed under 12 hours light/dark cycle and given standard rat chow and water ad libitum. • C. […] Test compounds in 0.2 mL vehicle are administered by subcutaneous injection in the nape of the neck or by gavage using 0.5 mL. The animals are treated once daily for seven days. […] In all studies, a control group receiving vehicle is included. Determination of dose-response curves is carried out using doses with half log increases (e.g. 0.1, 0.3, 1.0, 3.0 mg/kg). • E. Decidual Induction • Approximately 24 hours after the third injection, decidualization is induced in one of the uterine horns by scratching the antimesometrial luminal epithelium with a blunt 21 G needle. The contralateral horn is not scratched and serves as an unstimulated control. Approximately 24 hours following the final treatment, rats are sacrificed by CO2 asphyxiation and body weight measured. Uteri are removed and trimmed of fat. […] The Huber M-estimator is used to down weight the outlying transformed observations for both dose-response curve fitting and one-way analysis of variance. JMP software (SAS Institute, Inc.) is used for both one-way ANOVA and non-linear dose-response analyses. • G. Reference Compounds:
All progestin reference compounds are run in full dose-response curves and the EC50 for uterine wet weight is calculated.
Another test concerns the target T1, PR (Homo sapiens, UniProt P06401).
T1 construct: Frozen T47D cells were thawed in a 37° C. water bath and diluted to 280,000 cells/mL in culture medium; endogenous in cells; host or cells: T47D cells
T1 sequence (P06401 1-933): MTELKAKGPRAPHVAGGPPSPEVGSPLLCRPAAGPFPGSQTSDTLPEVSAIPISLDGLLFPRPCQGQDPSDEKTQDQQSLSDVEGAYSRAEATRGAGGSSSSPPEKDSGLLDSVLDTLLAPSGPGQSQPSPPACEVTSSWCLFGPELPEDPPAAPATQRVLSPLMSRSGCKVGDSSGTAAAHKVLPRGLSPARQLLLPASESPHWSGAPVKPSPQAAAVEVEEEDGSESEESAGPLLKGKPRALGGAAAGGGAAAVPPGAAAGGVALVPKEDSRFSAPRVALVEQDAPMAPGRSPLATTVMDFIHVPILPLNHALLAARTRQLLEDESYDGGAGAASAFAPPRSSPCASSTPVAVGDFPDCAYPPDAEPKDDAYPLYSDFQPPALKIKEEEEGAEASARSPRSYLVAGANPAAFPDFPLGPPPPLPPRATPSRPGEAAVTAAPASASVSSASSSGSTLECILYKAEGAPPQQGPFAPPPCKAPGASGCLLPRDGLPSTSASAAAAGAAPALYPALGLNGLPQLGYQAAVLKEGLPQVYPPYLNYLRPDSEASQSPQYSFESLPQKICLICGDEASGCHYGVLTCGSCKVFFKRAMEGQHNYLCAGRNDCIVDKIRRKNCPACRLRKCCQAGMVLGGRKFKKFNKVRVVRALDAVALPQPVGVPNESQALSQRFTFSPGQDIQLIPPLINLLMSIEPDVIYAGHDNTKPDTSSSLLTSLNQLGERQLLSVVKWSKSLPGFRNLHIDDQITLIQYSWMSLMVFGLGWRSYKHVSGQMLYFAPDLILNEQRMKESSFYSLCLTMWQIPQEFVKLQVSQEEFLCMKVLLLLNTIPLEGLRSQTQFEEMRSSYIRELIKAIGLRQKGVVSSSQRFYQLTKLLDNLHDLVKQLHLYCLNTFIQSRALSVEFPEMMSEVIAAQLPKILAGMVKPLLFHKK
Briefly: T47D cell alkaline phosphatase assay. The test is classed as cell-based. The following applies: T47D cells, agonist mode; read-out: Alk. Phos. EC50. The method, then: (4) T47D Cell Alkaline Phosphatase Assay
(a) Purpose: To identify progestins or antiprogestins by determining a compound's effect on alkaline phosphatase activity in T47D cells.
(b) Methods: • A. Reagents • (i) Culture medium: DMEM:F12 (1:1) (GIBCO, BRL) supplemented with 5% (v/v) charcoal stripped fetal bovine serum (not heat-inactivated), 100 U/mL penicillin, […] streptomycin, and 2 mM GlutaMax (GIBCO, BRL). • (ii) Alkaline Phosphatase Assay Buffer • I. 0.1 M Tris-HCl, pH 9.8, containing 0.2% the Triton™ X-100 reagent • II. 0.1 M Tris-HCl, pH 9.8 containing 4 mM p-nitrophenyl phosphate (Sigma). • B. Cell Culture and Treatment • Frozen T47D cells were thawed in a 37° C. water bath and diluted to 280,000 cells/mL in culture medium. To each well in a 96-well plate (Falcon, Becton Dickinson Labware), 180 μL of diluted cell suspension was added. Twenty μL of reference or test compounds diluted in the culture medium was then added to each well. […] The cells were incubated at 37° C. in a 5% CO2/humidified atmosphere for 24 hours. • Note: For high throughput screening, one concentration of each compound was tested at 0.3 mg/mL. […]
Square root-transformed data were used for analysis of variance and nonlinear dose response curve fitting for both agonist and antagonist modes. […] EC50 or IC50 values were calculated from the retransformed values. […]

Several values for one entry are separate records, joined by “and”; a condition that tells them apart may be missing. Equal entries are not always repeated.

Regarding `C#C[C@]1(O)CC[C@H]2[C@@H]3CCC4=CC(=O)CC[C@@H]4[C@H]3C(=C)C[C@@]21CC` [3-Ketodesogestrel], the “Estimated average EC50 for uterine weight (decidual response)” value (“Estimated average EC50” below) in test [1] is listed as 0.10 mg/kg, s.c.

`Cn1c(C#N)ccc1-c1ccc2c(c1)C(C)(C)CC2O` (stereo not shown) [Example 3, 5-(1-hydroxy-3,3-dimethyl-2,3-dihydro-1H-inden-5-yl)-1-methyl-1H-pyrrole-2-carbonitrile]: on PR, the EC50 came out at 18.6 nM.

As to `C#C[C@]1(O)CC[C@H]2[C@@H]3CCC4=CC(=O)CC[C@@H]4[C@H]3CC[C@@]21CC` [Levonorgestrel], in test [1], the “Estimated EC50 for uterine weight (decidual response)” value (“Estimated EC50 for uterine weight” below) is 0.08 mg/kg, s.c. and 0.12 mg/kg, s.c. and 0.09 mg/kg, s.c. (2×); the “Estimated average EC50” value is reported as 0.10 mg/kg, s.c.

Turning to `CC(=O)O[C@]1(C(C)=O)CC[C@H]2[C@@H]3C[C@H](C)C4=CC(=O)CC[C@]4(C)[C@H]3CC[C@@]21C` [MPA, medroxyprogesterone acetate], in test [1], the “Estimated EC50 for uterine weight” value was 0.42 mg/kg, s.c. and 0.39 mg/kg, s.c. (2×).

For `CC(=O)[C@H]1CC[C@H]2[C@@H]3CCC4=CC(=O)CC[C@]4(C)[C@H]3CC[C@]12C` [Progesterone], in test [1], the “Estimated EC50 for uterine weight” value is on record as 5.50 mg/kg, s.c and the “Estimated average EC50” value is 5.62 mg/kg, s.c.

What is called EC50 is the concentration giving half of the maximal effect.

The record behind these values is patent US20070066628A1 (Wyeth, priority 2005, published 2007).
